Assay results as given in patent US20080009418A1, “Selective Inhibitors” (Alchemia LTD., priority 2004, published 2008).

Tests used:
Conditions in all cases: compound at 10 μM
[1] = target: T1, Human neurokinin (NK1) (Homo sapiens, UniProt P25103); test: Radioligand binding, human neurokinin NK1 membranes, filtration, [125I]-Substance P
T1 construct: purchased Perkin Elmer Biosignal
Summary of the method: (§1)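 Filtration binding on cloned human receptor membranes (1 Unit/well), [125I]-Substance P for NK1 and [3H]-Diprenorphine for KOP, 1 h at room temperature. Filters PEI-presoaked, washed with cold 50 mM Tris-HCl pH 7.4, counted by scintillation; percent inhibition calculated, reference ligand defining non-specific binding.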

[2] = target: T2, Human Melanocortin (MC3) (Homo sapiens, UniProt P41968); test: Radioligand binding, human melanocortin MC3 membranes, FlashPlate, [125I]-NDP-αMSH
T2 construct: purchased Perkin Elmer Biosignal
T2 sequence (P41968 whole entry): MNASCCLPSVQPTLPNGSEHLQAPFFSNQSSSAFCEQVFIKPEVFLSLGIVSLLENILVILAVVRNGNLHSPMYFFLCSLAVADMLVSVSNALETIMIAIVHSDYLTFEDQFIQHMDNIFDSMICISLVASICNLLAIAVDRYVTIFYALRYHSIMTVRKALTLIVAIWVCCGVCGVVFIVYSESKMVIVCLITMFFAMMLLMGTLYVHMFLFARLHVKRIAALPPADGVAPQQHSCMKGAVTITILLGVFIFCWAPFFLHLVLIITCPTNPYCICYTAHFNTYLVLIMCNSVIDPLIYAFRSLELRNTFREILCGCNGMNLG
Summary of the method: (§2)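 Cloned human receptor membranes were coated onto FlashPlate wells and incubated with radioligand and compound (added from a 0.5 mM DMSO daughter plate) for 1 hour at room temperature in the dark. Scintillation counting gave percent inhibition, with DMSO defining total and reference ligand defining non-specific binding.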

[3] = target: T3, Human Melanocortin (MC4) (Homo sapiens, UniProt P32245); test: Radioligand binding, human melanocortin MC4 membranes, FlashPlate, [125I]-NDP-αMSH
T3 construct: purchased Perkin Elmer Biosignal
T3 sequence (P32245 whole entry): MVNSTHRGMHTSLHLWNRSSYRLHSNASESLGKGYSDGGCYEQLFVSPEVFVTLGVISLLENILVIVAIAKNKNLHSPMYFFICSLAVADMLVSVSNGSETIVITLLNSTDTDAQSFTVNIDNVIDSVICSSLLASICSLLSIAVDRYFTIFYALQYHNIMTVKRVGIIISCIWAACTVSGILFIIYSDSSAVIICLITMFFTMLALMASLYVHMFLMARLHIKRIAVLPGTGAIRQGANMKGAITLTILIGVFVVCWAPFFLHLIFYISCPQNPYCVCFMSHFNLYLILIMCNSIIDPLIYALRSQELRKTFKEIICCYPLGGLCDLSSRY
Summary of the method: as §2

[4] = target: T4, Human opioid (ORL1) (Homo sapiens, UniProt P41146); test: Radioligand binding, human opioid ORL1 membranes, FlashPlate, [125I]-Nociceptin
T4 construct: purchased Perkin Elmer Biosignal
T4 sequence (P41146 whole entry): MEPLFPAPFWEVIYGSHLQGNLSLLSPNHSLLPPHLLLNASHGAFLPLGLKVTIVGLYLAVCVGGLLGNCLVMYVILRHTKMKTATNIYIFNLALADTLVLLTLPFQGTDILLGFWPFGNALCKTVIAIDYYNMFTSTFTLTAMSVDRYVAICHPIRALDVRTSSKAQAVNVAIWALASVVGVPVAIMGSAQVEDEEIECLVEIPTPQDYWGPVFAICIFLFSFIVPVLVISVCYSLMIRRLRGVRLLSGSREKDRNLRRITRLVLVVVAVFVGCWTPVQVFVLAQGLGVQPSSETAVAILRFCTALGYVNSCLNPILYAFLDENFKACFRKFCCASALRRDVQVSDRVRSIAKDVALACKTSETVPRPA
Summary of the method: as §2

[5] = target: T5, Human neuropeptide Y (NPY-Y1) (Homo sapiens, UniProt P25929); test: Radioligand binding, human neuropeptide Y NPY-Y1 membranes, FlashPlate, [125I]-PYY
T5 construct: purchased Perkin Elmer Biosignal
T5 sequence (P25929 1-384): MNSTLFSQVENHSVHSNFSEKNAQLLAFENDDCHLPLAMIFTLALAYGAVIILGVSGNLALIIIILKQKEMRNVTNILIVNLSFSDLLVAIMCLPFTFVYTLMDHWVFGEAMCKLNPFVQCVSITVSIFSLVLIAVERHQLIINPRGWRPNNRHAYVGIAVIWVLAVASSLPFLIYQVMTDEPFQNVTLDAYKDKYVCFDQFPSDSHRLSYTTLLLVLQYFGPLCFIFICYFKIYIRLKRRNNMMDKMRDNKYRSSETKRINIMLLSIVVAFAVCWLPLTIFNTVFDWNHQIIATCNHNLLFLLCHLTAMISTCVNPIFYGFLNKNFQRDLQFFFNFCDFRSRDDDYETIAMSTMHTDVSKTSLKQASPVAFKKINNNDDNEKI
Summary of the method: as §2

[6] = target: T6, Mouse urotensin (mUR2) (Mus musculus, UniProt Q8VIH9); test: Radioligand binding, mouse urotensin mUR2 membranes, FlashPlate, [125I]-Urotensin II
T6 construct: purchased Perkin Elmer Biosignal
T6 sequence (Q8VIH9 1-385): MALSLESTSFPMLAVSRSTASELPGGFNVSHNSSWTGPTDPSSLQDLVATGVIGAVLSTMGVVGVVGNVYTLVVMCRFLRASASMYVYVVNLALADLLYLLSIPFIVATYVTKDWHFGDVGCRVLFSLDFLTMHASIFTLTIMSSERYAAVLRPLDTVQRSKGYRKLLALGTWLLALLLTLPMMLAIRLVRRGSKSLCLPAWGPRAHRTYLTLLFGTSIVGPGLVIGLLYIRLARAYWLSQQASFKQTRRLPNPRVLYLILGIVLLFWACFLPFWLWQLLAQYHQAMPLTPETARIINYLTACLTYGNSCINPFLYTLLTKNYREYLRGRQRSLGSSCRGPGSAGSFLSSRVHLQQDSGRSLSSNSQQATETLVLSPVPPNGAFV
Summary of the method: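 Cloned mouse urotensin (mUR2) receptor membranes from Perkin Elmer Biosignal were immobilized in FlashPlate microplates using a proprietary coating. Each well got 19.5 μl buffer, then 0.5 μl of DMSO, reference ligand, or compound. Adding 5 μl of [125I]-Urotensin II, diluted to 5× final concentration in binding buffer, started binding. Plates were sealed with TopSeal-A and incubated 1 hour at room temperature in the dark. Wells were counted for 30 seconds each on a TopCount after a 60-second delay, and percentage inhibition was calculated.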

[7] = target: T7, Human melanin-concentrating hormone (MCH1) (Homo sapiens, UniProt Q99705); test: Radioligand binding, human melanin-concentrating hormone MCH1 membranes, FlashPlate, [125I]-S36057
T7 construct: purchased Perkin Elmer Biosignal
T7 sequence (Q99705 whole entry): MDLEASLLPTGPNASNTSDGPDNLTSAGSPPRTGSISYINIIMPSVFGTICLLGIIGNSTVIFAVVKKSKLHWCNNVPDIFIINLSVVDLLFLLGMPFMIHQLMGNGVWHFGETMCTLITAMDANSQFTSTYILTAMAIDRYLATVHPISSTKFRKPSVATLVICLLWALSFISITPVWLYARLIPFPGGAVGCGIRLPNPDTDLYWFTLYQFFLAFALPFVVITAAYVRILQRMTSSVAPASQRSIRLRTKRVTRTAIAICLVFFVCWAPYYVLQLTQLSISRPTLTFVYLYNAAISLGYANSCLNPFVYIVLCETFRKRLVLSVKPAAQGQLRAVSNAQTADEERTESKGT
Summary of the method: as §2

[8] = target: T8, Human melanocortin (MC5) (Homo sapiens, UniProt P33032); test: Radioligand binding, human melanocortin MC5 membranes, FlashPlate, [125I]-NDP-αMSH
T8 construct: purchased Perkin Elmer Biosignal
T8 sequence (P33032 whole entry): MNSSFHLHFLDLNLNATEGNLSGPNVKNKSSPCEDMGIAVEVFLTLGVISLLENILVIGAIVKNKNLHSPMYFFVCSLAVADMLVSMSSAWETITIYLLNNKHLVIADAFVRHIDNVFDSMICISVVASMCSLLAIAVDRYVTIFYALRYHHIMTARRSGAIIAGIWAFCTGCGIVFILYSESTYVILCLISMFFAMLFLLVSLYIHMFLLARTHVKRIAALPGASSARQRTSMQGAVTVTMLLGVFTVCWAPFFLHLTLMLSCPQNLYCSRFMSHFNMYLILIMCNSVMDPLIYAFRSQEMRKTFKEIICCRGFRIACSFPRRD
Summary of the method: as §2

[9] = target: T9, Human δ-opioid (DOP) (Homo sapiens, UniProt P41143); test: Radioligand binding, human δ-opioid (DOP) membranes, FlashPlate, [3H]-Bremazocine
T9 construct: purchased Perkin Elmer Biosignal
T9 sequence (P41143 whole entry): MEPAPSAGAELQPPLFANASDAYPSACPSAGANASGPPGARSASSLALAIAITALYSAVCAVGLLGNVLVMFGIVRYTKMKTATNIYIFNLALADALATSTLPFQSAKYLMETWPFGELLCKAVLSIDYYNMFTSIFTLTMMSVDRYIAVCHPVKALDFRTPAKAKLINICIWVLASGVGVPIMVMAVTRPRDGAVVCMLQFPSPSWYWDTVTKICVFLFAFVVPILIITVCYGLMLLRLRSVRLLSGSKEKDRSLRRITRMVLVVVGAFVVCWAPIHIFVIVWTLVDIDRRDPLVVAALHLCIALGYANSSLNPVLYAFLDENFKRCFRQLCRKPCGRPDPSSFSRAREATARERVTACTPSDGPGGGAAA
Summary of the method: as §2

[10] = target: T10, Human μ-opioid (MOP) (Homo sapiens, UniProt P35372); test: Radioligand binding, human μ-opioid (MOP) membranes, FlashPlate, [3H]-Naloxone
T10 construct: purchased Perkin Elmer Biosignal
T10 sequence (P35372 whole entry): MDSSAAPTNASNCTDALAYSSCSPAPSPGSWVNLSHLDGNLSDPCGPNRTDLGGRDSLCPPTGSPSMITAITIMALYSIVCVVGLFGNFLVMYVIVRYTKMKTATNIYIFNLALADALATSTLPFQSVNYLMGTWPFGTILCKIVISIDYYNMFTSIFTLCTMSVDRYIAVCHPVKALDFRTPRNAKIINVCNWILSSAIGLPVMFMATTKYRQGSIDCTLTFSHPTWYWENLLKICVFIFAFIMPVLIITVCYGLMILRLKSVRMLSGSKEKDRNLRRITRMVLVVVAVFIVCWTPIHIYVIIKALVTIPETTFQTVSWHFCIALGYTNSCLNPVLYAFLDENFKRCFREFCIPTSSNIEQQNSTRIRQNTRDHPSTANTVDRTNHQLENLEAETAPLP
Summary of the method: as §2

[11] = target: T11, Human κ-Opioid (KOP) (Homo sapiens, UniProt P41145); test: Radioligand binding, human κ-opioid (KOP) membranes, filtration, [3H]-Diprenorphine
T11 construct: purchased Perkin Elmer Biosignal
T11 sequence (P41145 whole entry): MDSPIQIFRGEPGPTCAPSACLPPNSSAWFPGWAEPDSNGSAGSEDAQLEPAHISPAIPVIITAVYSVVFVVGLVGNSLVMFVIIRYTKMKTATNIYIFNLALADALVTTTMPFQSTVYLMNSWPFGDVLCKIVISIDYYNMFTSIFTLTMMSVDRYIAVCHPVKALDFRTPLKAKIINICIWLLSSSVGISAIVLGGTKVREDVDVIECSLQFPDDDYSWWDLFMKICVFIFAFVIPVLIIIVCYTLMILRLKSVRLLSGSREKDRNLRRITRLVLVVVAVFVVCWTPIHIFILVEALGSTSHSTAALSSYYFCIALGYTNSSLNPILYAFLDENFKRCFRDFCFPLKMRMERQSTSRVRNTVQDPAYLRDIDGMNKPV
Summary of the method: as §1

T1 sequence (P25103 whole entry): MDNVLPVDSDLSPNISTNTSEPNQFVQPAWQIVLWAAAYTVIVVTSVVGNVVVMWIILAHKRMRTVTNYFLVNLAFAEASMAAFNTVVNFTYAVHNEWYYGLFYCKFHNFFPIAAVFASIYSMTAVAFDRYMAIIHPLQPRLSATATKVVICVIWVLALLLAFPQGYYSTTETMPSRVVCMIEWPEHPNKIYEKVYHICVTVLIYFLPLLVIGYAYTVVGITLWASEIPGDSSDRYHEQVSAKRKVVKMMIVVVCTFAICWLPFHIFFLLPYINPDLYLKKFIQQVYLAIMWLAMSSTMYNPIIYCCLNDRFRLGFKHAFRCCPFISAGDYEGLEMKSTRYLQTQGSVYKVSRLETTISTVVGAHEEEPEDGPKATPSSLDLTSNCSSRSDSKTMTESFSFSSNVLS

## NCCC(=O)NC1C(OCc2ccccc2)OC(COCc2ccccc2)C(O)C1OCc1ccc(Cl)cc1 (stereo not shown) [compound 365]
[1]; [125I]-Substance P
  A8: inhibition of radioligand binding, human neurokinin (NK1): + (“+” indicates greater than 50% inhibition at 10 μM)
[2]; [125I]-NDP-αMSH
  A3: inhibition of radioligand binding, human melanocortin (MC3): − (“−” indicates less than 50% inhibition at 10 μM)
[3]; [125I]-NDP-αMSH
  A4: inhibition of radioligand binding, human melanocortin (MC4): − (“−” indicates less than 50% inhibition at 10 μM)
[4]; [125I]-Nociceptin
  A10: inhibition of radioligand binding, human opioid (ORL1): − (“−” indicates less than 50% inhibition at 10 μM)
[5]; [125I]-PYY
  A9: inhibition of radioligand binding, human neuropeptide Y (NPY-Y1): − (“−” indicates less than 50% inhibition at 10 μM)
[6]; [125I]-Urotensin II
  A11: inhibition of radioligand binding, mouse urotensin (mUR2): − (“−” indicates less than 50% inhibition at 10 μM)
[7]; [125I]-S36057
  A6: inhibition of radioligand binding, human melanin-concentrating hormone (MCH1): − (“−” indicates less than 50% inhibition at 10 μM)
[8]; [125I]-NDP-αMSH
  A5: inhibition of radioligand binding, human melanocortin (MC5): − (“−” indicates less than 50% inhibition at 10 μM)
[9]; [3H]-Bremazocine
  A1: inhibition of radioligand binding, human δ-opioid (DOP): − (“−” indicates less than 50% inhibition at 10 μM)
[10]; [3H]-Naloxone
  A7: inhibition of radioligand binding, human μ-opioid (MOP): − (“−” indicates less than 50% inhibition at 10 μM)
[11]; [3H]-Diprenorphine
  A2: inhibition of radioligand binding, human κ-opioid (KOP): − (“−” indicates less than 50% inhibition at 10 μM)

## COC[C@H]1OC(OCc2ccc3ccccc3c2)[C@H](NC(=O)CCCNC(=N)N)[C@@H](OCc2ccc(Cl)cc2)[C@@H]1O (stereo partly shown) [compound 341]
[1]; [125I]-Substance P
  A8: inhibition of radioligand binding, human neurokinin (NK1): + (“+” indicates greater than 50% inhibition at 10 μM)
[2]; [125I]-NDP-αMSH
  A3: inhibition of radioligand binding, human melanocortin (MC3): − (“−” indicates less than 50% inhibition at 10 μM)
[3]; [125I]-NDP-αMSH
  A4: inhibition of radioligand binding, human melanocortin (MC4): − (“−” indicates less than 50% inhibition at 10 μM)
[4]; [125I]-Nociceptin
  A10: inhibition of radioligand binding, human opioid (ORL1): − (“−” indicates less than 50% inhibition at 10 μM)
[5]; [125I]-PYY
  A9: inhibition of radioligand binding, human neuropeptide Y (NPY-Y1): − (“−” indicates less than 50% inhibition at 10 μM)
[6]; [125I]-Urotensin II
  A11: inhibition of radioligand binding, mouse urotensin (mUR2): − (“−” indicates less than 50% inhibition at 10 μM)
[7]; [125I]-S36057
  A6: inhibition of radioligand binding, human melanin-concentrating hormone (MCH1): + (“+” indicates greater than 50% inhibition at 10 μM)
[8]; [125I]-NDP-αMSH
  A5: inhibition of radioligand binding, human melanocortin (MC5): − (“−” indicates less than 50% inhibition at 10 μM)
[9]; [3H]-Bremazocine
  A1: inhibition of radioligand binding, human δ-opioid (DOP): − (“−” indicates less than 50% inhibition at 10 μM)
[10]; [3H]-Naloxone
  A7: inhibition of radioligand binding, human μ-opioid (MOP): + (“+” indicates greater than 50% inhibition at 10 μM)
[11]; [3H]-Diprenorphine
  A2: inhibition of radioligand binding, human κ-opioid (KOP): − (“−” indicates less than 50% inhibition at 10 μM)

## COC[C@H]1OC(OCc2ccc(-c3ccccc3)cc2)[C@H](NC(=O)CCNC(=N)N)[C@@H](OCc2cccc(O)c2)[C@@H]1O (stereo partly shown) [compound 130]
[1]; [125I]-Substance P
  A8 radioligand binding, percentage inhibition: − (“−” indicates less than 50% inhibition at 10 μM)
[2]; [125I]-NDP-αMSH
  A3 radioligand binding, percentage inhibition: − (“−” indicates less than 50% inhibition at 10 μM)
[3]; [125I]-NDP-αMSH
  A4 radioligand binding, percentage inhibition: − (“−” indicates less than 50% inhibition at 10 μM)
[4]; [125I]-Nociceptin
  A10 radioligand binding, percentage inhibition: − (“−” indicates less than 50% inhibition at 10 μM)
[5]; [125I]-PYY
  A9 radioligand binding, percentage inhibition: − (“−” indicates less than 50% inhibition at 10 μM)
[6]; [125I]-Urotensin II
  A11 radioligand binding, percentage inhibition: − (“−” indicates less than 50% inhibition at 10 μM)
[7]; [125I]-S36057
  A6 radioligand binding, percentage inhibition: − (“−” indicates less than 50% inhibition at 10 μM)
[8]; [125I]-NDP-αMSH
  A5 radioligand binding, percentage inhibition: − (“−” indicates less than 50% inhibition at 10 μM)
[9]; [3H]-Bremazocine
  A1 radioligand binding, percentage inhibition: − (“−” indicates less than 50% inhibition at 10 μM)
[10]; [3H]-Naloxone
  A7 radioligand binding, percentage inhibition: + (“+” indicates greater than 50% inhibition at 10 μM)
[11]; [3H]-Diprenorphine
  A2 radioligand binding, percentage inhibition: − (“−” indicates less than 50% inhibition at 10 μM)

## CO[C@H]1[C@H](O)[C@@H](COCc2ccc3ccccc3c2)OC(OCc2ccc3ccccc3c2)[C@@H]1NC(=O)CNC(=N)N (stereo partly shown) [compound 70]
[1]; human neurokinin NK1 membranes
  A8 radioligand binding inhibition: + (“+” indicates greater than 50% inhibition at 10 μM)
[2]; human melanocortin MC3 membranes
  A3 radioligand binding inhibition: + (“+” indicates greater than 50% inhibition at 10 μM)
[3]; human melanocortin MC4 membranes
  A4 radioligand binding inhibition: + (“+” indicates greater than 50% inhibition at 10 μM)
[4]; human ORL1 membranes
  A10 radioligand binding inhibition: − (“−” indicates less than 50% inhibition at 10 μM)
[5]; human NPY-Y1 membranes
  A9 radioligand binding inhibition: − (“−” indicates less than 50% inhibition at 10 μM)
[6]; mouse urotensin mUR2 membranes
  A11 radioligand binding inhibition: − (“−” indicates less than 50% inhibition at 10 μM)
[7]; human MCH1 membranes
  A6 radioligand binding inhibition: − (“−” indicates less than 50% inhibition at 10 μM)
[8]; human melanocortin MC5 membranes
  A5 radioligand binding inhibition: + (“+” indicates greater than 50% inhibition at 10 μM)
[9]; human δ-opioid (DOP) membranes
  A1 radioligand binding inhibition: − (“−” indicates less than 50% inhibition at 10 μM)
[10]; human μ-opioid (MOP) membranes
  A7 radioligand binding inhibition: + (“+” indicates greater than 50% inhibition at 10 μM)
[11]; human κ-opioid (KOP) membranes
  A2 radioligand binding inhibition: − (“−” indicates less than 50% inhibition at 10 μM)

## CSC1OC(COCc2ccc(Cl)cc2)C(O)C(OCc2ccc(Cl)cc2)C1NC(=O)CCN (stereo not shown) [compound 271]
[1]; [125I]-Substance P, filtration
  A8: inhibition of radioligand binding: + (“+” indicates greater than 50% inhibition at 10 μM)
[2]; [125I]-NDP-αMSH, FlashPlate
  A3: inhibition of radioligand binding: − (“−” indicates less than 50% inhibition at 10 μM)
[3]; [125I]-NDP-αMSH, FlashPlate
  A4: inhibition of radioligand binding: − (“−” indicates less than 50% inhibition at 10 μM)
[4]; [125I]-Nociceptin, FlashPlate
  A10: inhibition of radioligand binding: − (“−” indicates less than 50% inhibition at 10 μM)
[5]; [125I]-PYY, FlashPlate
  A9: inhibition of radioligand binding: − (“−” indicates less than 50% inhibition at 10 μM)
[6]; [125I]-Urotensin II, FlashPlate
  A11: inhibition of radioligand binding: − (“−” indicates less than 50% inhibition at 10 μM)
[7]; [125I]-S36057, FlashPlate
  A6: inhibition of radioligand binding: − (“−” indicates less than 50% inhibition at 10 μM)
[8]; [125I]-NDP-αMSH, FlashPlate
  A5: inhibition of radioligand binding: − (“−” indicates less than 50% inhibition at 10 μM)
[9]; [3H]-Bremazocine, FlashPlate
  A1: inhibition of radioligand binding: − (“−” indicates less than 50% inhibition at 10 μM)
[10]; [3H]-Naloxone, FlashPlate
  A7: inhibition of radioligand binding: − (“−” indicates less than 50% inhibition at 10 μM)
[11]; [3H]-Diprenorphine, filtration
  A2: inhibition of radioligand binding: − (“−” indicates less than 50% inhibition at 10 μM)
